Assay results published in patent publication US10479795B2 (Incyte Corporation, priority 2016, dated 2019).
pIC50: −log10 of the molar value. Where two headings read alike, the source gives them in different places.

How the values were obtained:
[1] = biological target: PI3Kγ (p110γ) Recombinant Human Protein (Homo sapiens (Human), UniProt P48736); assay: PI3K-γ Scintillation Proximity Assay; assay type: biochemical
Procedure, shortened: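 Recombinant human p110γ assayed at room temperature in 20 mM MOPS pH 6.7, 10 mM MgCl2, 5 mM DTT, 0.03% CHAPS, 2% DMSO, with 20 μM PIP2 and 2 μM ATP plus [γ-33P]ATP. Product captured on WGA SPA beads overnight and counted; IC50 fitted from % of solvent-control activity versus log inhibitor concentration.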

[2] = biological target: PI3Kδ (p110δ/p85α) Recombinant Human Protein (Homo sapiens (Human), UniProt O00329); assay: PI3Kδ Scintillation Proximity Assay; assay type: biochemical
Source text: Example C. PI3Kδ Scintillation Proximity Assay
[γ-^33P]ATP (10 mCi/mL) and Wheat Germ Agglutinin (WGA) YSi SPA Scintillation Beads was purchased from Perkin-Elmer (Waltham, Mass.). Lipid kinase substrate, D-myo-Phosphatidylinositol 4,5-bisphosphate (PtdIns(4,5)P2)D (+)-sn-1,2-di-O-octanoylglyceryl, 3-O-phospho linked (PIP2), CAS 204858-53-7, was purchased from Echelon Biosciences (Salt Lake City, Utah). PI3Kδ (p110δ/p85α) Recombinant Human Protein was purchased from Eurofins (St Charles, Mo.). ATP, MgCl2, DTT, EDTA, MOPS and CHAPS were purchased from Sigma-Aldrich (St. Louis, Mo.).
The kinase reaction was conducted in polystyrene 384-well Greiner Bio-one white plate from Thermo Fisher Scientific in a final volume of 25 μL. Inhibitors were first diluted serially in DMSO and added to the plate wells before the addition of other reaction components. The final concentration of DMSO in the assay was 2%. The PI3Kδ assay was carried out at room temperature in 20 mM MOPS, pH 6.7, 10 mM MgCl2, 5 mM DTT and CHAPS 0.03%. Reactions were initiated by the addition of ATP, the final reaction mixture consisted of 20 μM PIP2, 2 μM ATP, 0.5 μCi [γ-^33P] ATP, 3.4 nM PI3Kδ. Reactions were incubated for 120 min and terminated by the addition of 40 μL SPA beads suspended in quench buffer: 163 mM potassium phosphate pH 7.8, 20% glycerol, 25 mM EDTA. The final concentration of SPA beads is 1.0 mg/mL. After the plate sealing, plates were shaken overnight at room temperature and centrifuged at 1500 rpm for 10 min, the radioactivity of the product was determined by scintillation counting on Topcount (Perkin-Elmer). IC50 determination was performed by fitting the curve of percent of the solvent control activity versus the log of the inhibitor concentration using the GraphPad Prism 6.0 software.

PI3Kγ (p110γ) Recombinant Human Protein, sequence (P48736 whole entry): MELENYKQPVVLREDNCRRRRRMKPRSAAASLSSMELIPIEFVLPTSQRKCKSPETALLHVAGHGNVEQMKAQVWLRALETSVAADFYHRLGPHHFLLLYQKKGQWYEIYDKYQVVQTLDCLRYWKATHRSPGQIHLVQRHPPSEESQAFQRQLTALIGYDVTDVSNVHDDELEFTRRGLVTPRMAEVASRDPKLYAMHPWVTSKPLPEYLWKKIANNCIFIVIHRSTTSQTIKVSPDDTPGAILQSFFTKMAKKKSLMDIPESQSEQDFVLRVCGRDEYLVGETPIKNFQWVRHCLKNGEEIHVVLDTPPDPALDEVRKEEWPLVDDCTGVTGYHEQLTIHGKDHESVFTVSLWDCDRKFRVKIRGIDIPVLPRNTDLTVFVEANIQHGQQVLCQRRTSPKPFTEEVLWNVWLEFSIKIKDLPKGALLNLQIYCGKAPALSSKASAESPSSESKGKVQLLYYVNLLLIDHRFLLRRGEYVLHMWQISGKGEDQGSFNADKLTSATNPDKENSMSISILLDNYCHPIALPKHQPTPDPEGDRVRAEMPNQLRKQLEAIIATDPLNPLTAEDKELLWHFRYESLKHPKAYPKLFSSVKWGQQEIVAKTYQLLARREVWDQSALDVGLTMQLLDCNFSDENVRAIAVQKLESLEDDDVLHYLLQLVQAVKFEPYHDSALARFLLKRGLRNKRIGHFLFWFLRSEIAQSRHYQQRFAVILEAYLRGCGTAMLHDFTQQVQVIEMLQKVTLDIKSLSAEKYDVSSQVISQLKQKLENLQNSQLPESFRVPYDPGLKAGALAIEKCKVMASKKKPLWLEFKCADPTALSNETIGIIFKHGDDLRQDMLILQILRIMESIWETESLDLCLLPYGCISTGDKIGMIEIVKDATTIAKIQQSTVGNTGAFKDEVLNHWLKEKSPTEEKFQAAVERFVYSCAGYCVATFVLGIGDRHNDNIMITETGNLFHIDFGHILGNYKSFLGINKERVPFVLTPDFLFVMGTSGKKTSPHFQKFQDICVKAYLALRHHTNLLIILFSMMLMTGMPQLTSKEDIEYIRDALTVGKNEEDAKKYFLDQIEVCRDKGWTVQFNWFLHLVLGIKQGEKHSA
PI3Kδ (p110δ/p85α) Recombinant Human Protein, sequence (O00329 whole entry): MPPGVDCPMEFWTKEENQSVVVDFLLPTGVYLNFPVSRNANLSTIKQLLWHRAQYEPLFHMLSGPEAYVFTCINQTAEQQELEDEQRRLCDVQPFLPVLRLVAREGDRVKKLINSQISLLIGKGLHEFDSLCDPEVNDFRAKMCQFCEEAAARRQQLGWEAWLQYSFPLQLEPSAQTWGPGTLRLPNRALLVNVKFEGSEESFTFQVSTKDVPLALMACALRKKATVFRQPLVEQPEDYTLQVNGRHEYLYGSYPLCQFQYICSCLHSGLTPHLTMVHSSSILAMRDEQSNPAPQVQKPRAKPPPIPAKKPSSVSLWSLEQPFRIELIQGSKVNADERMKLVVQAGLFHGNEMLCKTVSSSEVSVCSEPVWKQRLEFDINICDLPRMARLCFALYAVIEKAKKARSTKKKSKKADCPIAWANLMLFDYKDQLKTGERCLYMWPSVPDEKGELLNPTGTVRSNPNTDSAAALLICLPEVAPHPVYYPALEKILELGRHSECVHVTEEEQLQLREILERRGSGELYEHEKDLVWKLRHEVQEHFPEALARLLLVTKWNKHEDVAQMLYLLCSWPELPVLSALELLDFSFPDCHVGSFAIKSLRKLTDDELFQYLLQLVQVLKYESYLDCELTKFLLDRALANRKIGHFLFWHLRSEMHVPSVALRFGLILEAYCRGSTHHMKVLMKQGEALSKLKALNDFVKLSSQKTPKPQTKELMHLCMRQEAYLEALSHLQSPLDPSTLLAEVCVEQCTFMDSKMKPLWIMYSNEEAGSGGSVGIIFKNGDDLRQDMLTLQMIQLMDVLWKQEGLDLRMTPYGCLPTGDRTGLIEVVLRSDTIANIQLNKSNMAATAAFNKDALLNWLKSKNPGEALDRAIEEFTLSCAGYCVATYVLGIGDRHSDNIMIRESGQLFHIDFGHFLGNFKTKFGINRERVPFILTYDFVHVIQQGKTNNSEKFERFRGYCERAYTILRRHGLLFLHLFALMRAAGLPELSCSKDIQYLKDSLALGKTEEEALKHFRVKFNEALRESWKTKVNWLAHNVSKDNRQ
PI3Kδ (p110δ/p85α) Recombinant Human Protein, sequence (P27986 whole entry partner): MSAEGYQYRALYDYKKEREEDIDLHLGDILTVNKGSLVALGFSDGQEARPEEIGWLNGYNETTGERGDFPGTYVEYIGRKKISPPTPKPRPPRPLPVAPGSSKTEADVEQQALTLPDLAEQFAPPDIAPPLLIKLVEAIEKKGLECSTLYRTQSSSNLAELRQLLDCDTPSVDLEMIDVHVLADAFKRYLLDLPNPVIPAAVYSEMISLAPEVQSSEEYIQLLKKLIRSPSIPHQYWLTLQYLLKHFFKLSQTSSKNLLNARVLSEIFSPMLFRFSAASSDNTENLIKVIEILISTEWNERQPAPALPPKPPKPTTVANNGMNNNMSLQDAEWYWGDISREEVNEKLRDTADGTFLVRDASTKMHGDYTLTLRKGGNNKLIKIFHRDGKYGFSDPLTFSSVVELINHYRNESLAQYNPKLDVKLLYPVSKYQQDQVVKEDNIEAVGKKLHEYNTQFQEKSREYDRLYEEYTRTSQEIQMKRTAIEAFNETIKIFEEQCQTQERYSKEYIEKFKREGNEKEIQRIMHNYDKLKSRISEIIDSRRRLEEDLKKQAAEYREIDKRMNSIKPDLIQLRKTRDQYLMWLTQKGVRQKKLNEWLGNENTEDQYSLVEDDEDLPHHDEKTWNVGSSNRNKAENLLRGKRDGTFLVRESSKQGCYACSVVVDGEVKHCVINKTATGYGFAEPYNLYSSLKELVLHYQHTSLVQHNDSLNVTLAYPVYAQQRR

| Compound | pIC50 ([1]; read-out: PI3Kγ IC50) | pIC50 [2] | pIC50 [1] |
| --- | --- | --- | --- |
| Cc1ccc(S(=O)(=O)N(C)C2CC(O)C2)cc1-c1cnc2c(N)ncnn12 [Example 159, 3-(4-aminoimidazo[2,1-f][1,2,4]triazin-7-yl)-N-((1R,3R)-3-hydroxycyclobutyl)-N,4-dimethylbenzenesulfonamide] | 6.30 to 7.00 | < 5.70 |  |
| Cc1ccc(S(=O)(=O)N(C)CC2(CO)CC2)cc1-c1cnc2c(N)ncnn12 [Example 160, 3-(4-aminoimidazo[2,1-f][1,2,4]triazin-7-yl)-N-((1-(hydroxymethyl)cyclopropyl)methyl)-N,4-dimethylbenzenesulfonamide] | 6.30 to 7.00 | 5.70 to 6.30 |  |
| Cc1ccc(S(=O)(=O)N2C[C@H](O)[C@@H](N3CCN(C)CC3)C2)cc1-c1cnc2c(N)ncnn12 [Example 167, (3S,4S)-1-((3-(4-aminoimidazo[2,1-f][1,2,4]triazin-7-yl)-4-methylphenyl)sulfonyl)-4-(4-methylpiperazin-1-yl)pyrrolidin-3-ol] | 6.30 to 7.00 | < 5.70 |  |
| Cc1ccc(S(=O)(=O)N2C3CCC2CC(N2CCOCC2)C3)cc1-c1cnc2c(N)ncnn12 (stereo not drawn) [Example 169, 7-(2-methyl-5-((3-morpholino-8-azabicyclo[3.2.1]octan-8-yl)sulfonyl)phenyl)imidazo[2,1-f][1,2,4]triazin-4-amine] | 6.30 to 7.00 | < 5.70 |  |
| Cc1ccc(S(=O)(=O)N2[C@@H]3CC[C@H]2CN(C)C3)cc1-c1cnc2c(N)ncnn12 [Example 170, 7-(2-methyl-5-(((1R,5S)-3-methyl-3,8-diazabicyclo[3.2.1]octan-8-yl)sulfonyl)phenyl)imidazo[2,1-f][1,2,4]triazin-4-amine] | > 7.00 | 5.70 to 6.30 |  |
| Cc1ccc(S(=O)(=O)N2CCN(C3CC3)C(=O)C2)cc1-c1cnc2c(N)ncnn12 [Example 171, 4-((3-(4-aminoimidazo[2,1-f][1,2,4]triazin-7-yl)-4-methylphenyl)sulfonyl)-1-cyclopropylpiperazin-2-one] | 6.30 to 7.00 | 5.70 to 6.30 |  |
| Cc1ccc(S(=O)(=O)N2CC(=O)N3CCCC[C@@H]3C2)cc1-c1cnc2c(N)ncnn12 [Example 172, (R)-2-((3-(4-aminoimidazo[2,1-f][1,2,4]triazin-7-yl)-4-methylphenyl)sulfonyl)octahydro-4H-pyrido[1,2-a]pyrazin-4-one] | 6.30 to 7.00 | 5.70 to 6.30 |  |
| Cc1ccc(S(=O)(=O)N(CCC#N)C2CCCCC2)cc1-c1cnc2c(N)ncnn12 [Example 173, 3-(4-aminoimidazo[2,1-f][1,2,4]triazin-7-yl)-N-(2-cyanoethyl)-N-cyclohexyl-4-methylbenzenesulfonamide] | 6.30 to 7.00 | < 5.70 |  |
| Cc1ccc(S(=O)(=O)N2CCN3C(=O)OC[C@H]3C2)cc1-c1cnc2c(N)ncnn12 [Example 174, (R)-7-((3-(4-aminoimidazo[2,1-f][1,2,4]triazin-7-yl)-4-methylphenyl)sulfonyl)hexahydro-3H-oxazolo[3,4-a]pyrazin-3-one] | 6.30 to 7.00 | < 5.70 |  |
| Cc1ccc(S(=O)(=O)N(C)CC2(C)COC2)cc1-c1cnc2c(N)ncnn12 [Example 176, 3-(4-aminoimidazo[2,1-f][1,2,4]triazin-7-yl)-N,4-dimethyl-N-((3-methyloxetan-3-yl)methyl)benzenesulfonamide] |  | < 5.70 | 6.30 to 7.00 |
| Cc1ccc(S(=O)(=O)N[C@]2(C)C[C@H](O)C2)cc1-c1cnc2c(N)ncnn12 [Example 191, 3-(4-aminoimidazo[2,1-f][1,2,4]triazin-7-yl)-N-((1s,3s)-3-hydroxy-1-methylcyclobutyl)-4-methylbenzenesulfonamide] | > 7.00 | 5.70 to 6.30 |  |
| Cc1ccc(S(=O)(=O)N2CCC3(CC2)COC(=O)N3)cc1-c1cnc2c(N)ncnn12 [Example 193, 8-((3-(4-Aminoimidazo[2,1-f][1,2,4]triazin-7-yl)-4-methylphenyl)sulfonyl)-3-oxa-1,8-diazaspiro[4.5]decan-2-one] | > 7.00 | 5.70 to 6.30 |  |
| Cc1ccc(S(=O)(=O)N2CC3(CCN(C)C3=O)C2)cc1-c1cnc2c(N)ncnn12 [Example 195, 2-((3-(4-Aminoimidazo[2,1-f][1,2,4]triazin-7-yl)-4-methylphenyl)sulfonyl)-6-methyl-2,6-diazaspiro[3.4]octan-5-one] | > 7.00 | 6.30 to 7.00 |  |
| Cc1ccc(S(=O)(=O)N2CCC(F)(F)C(O)C2)cc1-c1cnc2c(N)ncnn12 (stereo not drawn) [Example 196, 1-((3-(4-Aminoimidazo[2,1-f][1,2,4]triazin-7-yl)-4-methylphenyl)sulfonyl)-4,4-difluoropiperidin-3-ol] | > 7.00 | 5.70 to 6.30 |  |

The next lines start with results.

| pIC50 ([1]; read-out: PI3Kγ IC50) | pIC50 [2] | Compound | pIC50 [1] |
| --- | --- | --- | --- |
| > 7.00 | 6.30 to 7.00 | CO[C@@H]1CN(S(=O)(=O)c2ccc(C)c(-c3cnc4c(N)ncnn34)c2)C[C@H]1F [Example 151, 7-(5-(((3R,4R)-3-fluoro-4-methoxypyrrolidin-1-yl)sulfonyl)-2-methylphenyl)imidazo[2,1-f][1,2,4]triazin-4-amine] |  |
| > 7.00 | 5.70 to 6.30 | Cc1ccc(S(=O)(=O)N2CCC[C@@H]2CO)cc1-c1cnc2c(N)ncnn12 [Example 152] |  |
| > 7.00 | 5.70 to 6.30 | Cc1ccc(S(=O)(=O)N2CC(C3COC3)C2)cc1-c1cnc2c(N)ncnn12 [Example 153, 7-(2-methyl-5-((3-(oxetan-3-yl)azetidin-1-yl)sulfonyl)phenyl)imidazo[2,1-f][1,2,4]triazin-4-amine] |  |
| > 7.00 | < 5.70 | Cc1ccc(S(=O)(=O)N(C)CCC#N)cc1-c1cnc2c(N)ncnn12 [Example 154, 3-(4-aminoimidazo[2,1-f][1,2,4]triazin-7-yl)-N-(2-cyanoethyl)-N,4-dimethylbenzenesulfonamide] |  |
| > 7.00 | 5.70 to 6.30 | Cc1ccc(S(=O)(=O)N2CC(C)OCC2(C)C)cc1-c1cnc2c(N)ncnn12 (stereo not drawn) [Example 158, 7-(2-methyl-5-((2,5,5-trimethylmorpholino)sulfonyl)phenyl)imidazo[2,1-f][1,2,4]triazin-4-amine] |  |
| > 7.00 | 6.30 to 7.00 | Cc1ccc(S(=O)(=O)N2CCS(=O)(=O)CC2)cc1-c1cnc2c(N)ncnn12 [Example 161, 4-((3-(4-aminoimidazo[2,1-f][1,2,4]triazin-7-yl)-4-methylphenyl)sulfonyl)thiomorpholine 1,1-dioxide] |  |
| > 7.00 | 5.70 to 6.30 | Cc1ccc(S(=O)(=O)N2CCS(=O)(=O)CC2C)cc1-c1cnc2c(N)ncnn12 (stereo not drawn) [Example 162, 4-((3-(4-aminoimidazo[2,1-f][1,2,4]triazin-7-yl)-4-methylphenyl)sulfonyl)-3-methylthiomorpholine 1,1-dioxide] |  |
| > 7.00 | 5.70 to 6.30 | Cc1ccc(S(=O)(=O)N(C)CC(F)(F)F)cc1-c1cnc2c(N)ncnn12 [Example 163, 3-(4-aminoimidazo[2,1-f][1,2,4]triazin-7-yl)-N,4-dimethyl-N-(2,2,2-trifluoroethyl)benzenesulfonamide] |  |
| > 7.00 | 5.70 to 6.30 | CCCN(CC1CC1)S(=O)(=O)c1ccc(C)c(-c2cnc3c(N)ncnn23)c1 [Example 164, 3-(4-aminoimidazo[2,1-f][1,2,4]triazin-7-yl)-N-(cyclopropylmethyl)-4-methyl-N-propylbenzenesulfonamide] |  |
| > 7.00 | 5.70 to 6.30 | Cc1ccc(S(=O)(=O)N2CCCC2c2c(C)noc2C)cc1-c1cnc2c(N)ncnn12 (stereo not drawn) [Example 168, 7-(5-((2-(3,5-dimethylisoxazol-4-yl)pyrrolidin-1-yl)sulfonyl)-2-methylphenyl)imidazo[2,1-f][1,2,4]triazin-4-amine] |  |
| > 7.00 | 5.70 to 6.30 | COCC1(N(C)S(=O)(=O)c2ccc(C)c(-c3cnc4c(N)ncnn34)c2)CC1 [Example 177, 3-(4-aminoimidazo[2,1-f][1,2,4]triazin-7-yl)-N-(1-(methoxymethyl)cyclopropyl)-N,4-dimethylbenzenesulfonamide] |  |
| > 7.00 | 5.70 to 6.30 | Cc1ccc(S(=O)(=O)N(C)CC2(CO)CCC2)cc1-c1cnc2c(N)ncnn12 [Example 178, 3-(4-aminoimidazo[2,1-f][1,2,4]triazin-7-yl)-N-((1-(hydroxymethyl)cyclobutyl)methyl)-N,4-dimethylbenzenesulfonamide] |  |
| > 7.00 | 5.70 to 6.30 | CCN(CC1CCCO1)S(=O)(=O)c1ccc(C)c(-c2cnc3c(N)ncnn23)c1 (stereo not drawn) [Example 179, 3-(4-aminoimidazo[2,1-f][1,2,4]triazin-7-yl)-N-ethyl-4-methyl-N-((tetrahydrofuran-2-yl)methyl)benzenesulfonamide] |  |
